The values that follow come from patent publication US4845233A, “Imidazolin-2-ones” (IPRX, Inc., priority 1987, dated 1989).

Data set [1] can be described thus: in vitro transdermal penetration of indomethacin from petrolatum ointment through shed snake skin, vertical diffusion cell. Format: in vitro ADME, Elaphe obsoleta (black rat snake). Particulars: for Relative Penetration: 5% enhancer in ointment, indomethacin, slope relative to Azone = 100%. The method, then:
Ointments were prepared by mixing 1% indomethacin, 5% dermal penetration enhancer and 94% petrolatum at 55°-60° C. to give a homogeneous dispersion of indomethacin. In the cases where the enhancers are liquid the indomethacin and the enhancer were first mixed well and then followed by the incorporation of the petrolatum. The mixture was melted at 55°-60° C. and stirred until a homogeneous ointment was obtained. For low melting enhancers, the enhancer and the indomethacin were melted together and mixed in a water-bath followed by the incorporation of petrolatum. For high melting enhancers, it was necessary to mix the components in an agate mortar.
A whole shed snake skin from the molt of adult Elaphe obsoleta (black rat snake) was obtained from the Animal Care Unit of the University of Kansas. Only the dorsal side of the shed snake skin was used for in vitro penetration studies. The head and tail sections of the snake skin was removed and the remainder of the skin was cut randomly into sections of approximately 2 inches by 2 inches. Each piece of snake skin was hydrated overnight by first soaking the skin in water (about 5 to 10 min) until it could be stretched and then it was placed on a plastic pan which held some water. The pan was floated on a water-bath of 32° C. overnight.
Approximately 30 mg of ointment as prepared as described in Example 23 was smeared evenly on an area of the 2"×2" snake skin. The ointment was smeared into an essentially circular area approximately 1.77 cm^2 and having a diameter of approximately 15 mm. The snake skin was then mounted on top of the receptor cell of a verticle diffusion cell assembly in which a small magnetic bar was inserted and filled with an isotonic buffer. A rubber o-ring was placed on top of the skin followed by the placement of the donor cell. The two cells were clamped together and transferred to a water-bath (32° C.) which had several magnetic stirrers placed underneath to stir the contents of the diffusion cells. Samples from the cells were withdrawn periodically by gravity by inputing fresh isotonic buffer into the cells inlets. The first five drops were discarded and the following four drops were collected for analysis. These nine drops of sample solution were approximately equivalent to about 0.20 ml.
The samples were analyzed for the concentration of indomethacin using either a Spectroflow 783 programmable absorbance detector or a Perkin-Elmer ISS-100 HPLC apparatus with a Perkin-Elmer LC9 UV spectrophotometric detector and a Perkin-Elmer ISS-100 automatic sampler with the detection wavelength set at 260 nm. A reverse phase column, RP-8 Spheri-5, 4.6×100 mm and a guard tube OD-GU, purchased from Brownlee Labs, were used in conjunction with the HPLC system. The flow rate was 1.0 ml/min and the solvent system was a mixture of acetonitrile (50%) and a 0.01M phosphate buffer (pH 3.0) (50%).
The concentration in each sample was interpreted from a standard curve which was obtained by plotting the peak areas obtained from HPL chromatograms versus four different standard solutions of indomethacin. The standard curves were linear over a range of concentrations from 2.5 to 10 ug/ml. The receptor cell volume was calibrated by weighing the amount of water in the cell. The first sample needs no concentration correction. However, the concentration in the subsequent samples can be corrected by the following equation [formula] where xi is a member of microgram of indomethacin in the i^th sample. Also, the volume withdrawn for each sampling is about 0.20 ml. Yi is the concentration correction for i-1 sample.
The foregoing results were obtained by using 5% of the transdermal penetration enhancer in the ointment. […] Thus, Table III primarily reflects the transdermal penetration data of […] from ointments of 94% petrolatum and 5% enhancer. In Run No. 14, Azone was selected as the standard for comparison since it is claimed to be an excellent enhancer although it is too toxic. […]

For data set [2] the following is noted: intraperitoneal; cited from earlier work.
Data set [3] is described as follows: in vitro transdermal penetration of indomethacin from petrolatum ointment through shed snake skin, vertical diffusion cell. Format: in vitro ADME, Elaphe obsoleta (black rat snake). The conditions noted are these: * 10% enhancer in ointment, slope relative to Azone = 100%.
Data set [4] concerns Swiss white mice. The conditions noted are these: mouse, in vivo, sc, 1000 mg/kg.
For data set [5], the system named is Swiss white mice. The data set is described as follows: Chronic Toxicity Study, subcutaneous daily for 14 days. Format: in vivo. Particulars: 1000 mg/Kg daily for 14 days. The protocol:
The compound identified in Example 25 and represented as Run No. 3 in Table III, was also evaluated for chronic toxicity. Six Swiss white mice were injected subcutaneously at a dose of 1000 mg/Kg daily for 14 days. A sample dispersion of 400 mg/4.0 ml was prepared by dispersing the soft enhancer in a powder form in a 2% Tween 80 saline solution. The homogeneous dispersion was obtained by vortexing the material in a conical flask in which a plastic ball was placed. Sample dispersion was prepared alternative day in order to avoid serious contamination. Prior to injection the dispersion was shaken and withdrawn into a sterile graduated 1 cc TB syring (readable to 0.05 ml). Sterile hypodermic needles (25.4 mm) were required for injecting the dispersion. The control mice were injected an equivalent volume of the 2% Tween 80 suspension in saline. The suspension was prepared on an alternative day to avoid serious contamination. […] Two mice injected with the sample and one from the control were sacrificed and dissected for examination. For the control mouse, there was no obvious damage to the tissue and the internal organs. […] The mice were maintained for a period of 39 days during which time one mouse was sacrificed to check for the presence of the yellowish material.

On to “1-Methyl-4-imidazolin-2-one-3-propylenedodecanoate [Run No. 5]”, for which the “penetration enhancement of indomethacin versus Azone (FIG. 1)” value in data set [1] (within the first 24 hours) is “well above that of the standard Azone”. Regarding `CCCCCCCCCCCCN1CCCCCC1=O` [Azone, 1-Dodecylazacycloheptane-2-One, reference compound], the LD50 result in data set [2] is listed as “approximately 232 mg/kg”. The “Relative Penetration” value in data set [1] was 100%.

On to `CCCCCCCCCCCCCC(=O)OC(C)n1ccn(CC)c1=O` (stereo not drawn) [Run No. 7, 1-ethyl-4-imidazolin-2-one-3-α-ethyltetradecanoate], for which the “Relative Penetration” value in data set [1] was determined as 50%. Same read-out and setting: the result for `CCCCCCCCCCOC(=O)OCn1ccn(C)c1=O` [Run No. 9] reads 15%; that for `CCCCCCCCCCCCCCOC(=O)OCn1ccn(C)c1=O` [Run No. 10], 10%. Turning to `CCCCCCCCCCCC(=O)OCn1ccn(C)c1=O` [Run No. 12, 1-Methyl-4-imidazolin-2-one-3-methylenedodecanoate], the entries for the “Relative Penetration” value in data set [3] and in data set [1] were 20% and 10%, respectively. For the molecule `CCCCCCCCCCCC(=O)OC(C)Cn1ccn(C)c1=O` (centres unmarked) [compound 1], the “Relative Penetration” value in data set [1] was 120-200%. Same read-out and setting: the result for `CCCCCCCCCCCCCC(=O)OC(C)Cn1ccn(C)c1=O` (centres unmarked) [compound 2] reads 70%. In the case of `CCCCCCCCCCCCCC(=O)OC(C)n1ccn(C)c1=O` (centres unmarked) [compound 3], the “Relative Penetration” value in data set [3] is on record as 50%; in data set [1], 80-100%. Also, the “damage to internal organs and tissue at the injection site (dissection)” value with Swiss white mice [4] is “no obvious damage to the internal organs and tissue at the injection site”. The “damage to internal organs (dissection)” value in the data set with Swiss white mice [5] is “no obvious damage to the internal organs was seen”. In the data set on Swiss white mice [5], the “injection site finding (dissection)” value is “a substantial amount of yellowish material was found on the injection site”. Also, in the data set with Swiss white mice [5] (after 39 days), the “yellowish material at injection site at follow-up” value was “The yellowish material disappeared after 39 days”. Consider `CCCCCCCCCCCC(=O)OC(C)n1ccn(C)c1=O` (centres unmarked) [compound 4], for which the “Relative Penetration” value is recorded as 40% in data set [3] and 60% in data set [1].

As for `CCCCCCCCCCCC(=O)OCCCn1ccn(C)c1=O` [compound 5], the “Relative Penetration” value in data set [1] is given as 100%. Still for that read-out and setting: the result for `CCCCCCCCCCCC(=O)OCCn1ccn(C)c1=O` [compound 6] reads 60%; that for `CCCCCCCCCCCCOC(=O)OCn1ccn(C)c1=O` [compound 8], 50%; that for `CCCCCCCCCC(=O)OCn1ccn(C)c1=O` [compound 11], 10%.

Regarding `CCCCCCCCCC(=O)OC(C)Cn1ccn(C)c1=O` (centres unmarked) [compound 13], in data set [1], the “Relative Penetration” value is 50%.
